Data reported in patent US7527967B2, “Recombinant baculovirus and virus-like particle” (priority 2003, dated 2009).

Tested on: vAtEGp64S966 baculovirus (spike protein) entry into Vero E6 cells
Format: cell-based

| Structure (SMILES) | blocking the entry of baculovirus into Vero E6 cells |
| --- | --- |
| CN1CCN(CCCN2c3ccccc3Sc3ccc(Cl)cc32)CC1 [compound 0643, Prochlorperazine] | very effective in blocking the entry |
| CCC(=O)c1ccc2c(c1)N(CC(C)N(C)C)c1ccccc1S2 (stereo not drawn) [compound 0649, Propiomazine] | very effective in blocking the entry |
| CSc1ccc2c(c1)N(CCC1CCCCN1C)c1ccccc1S2 (stereo not drawn) [compound 2025, Thioridazine] | very effective in blocking the entry |
